From the supplement of paper PMC10307832

Tests used:
Experiment in all cases: relative viability (nuclei count vs DMSO), 5 days (fraction); higher = more cells survive
[1] = compound: CC1=C(C(=NN1)C)CC2=C(C3=C(S2)N(C(=O)N(C3=O)C)CC(C)C)C(=O)N4C[C@@H](CO4)O + NC(=O)Nc1cc(-c2cccc(F)c2)sc1C(=O)N[C@H]1CCCNC1 [AZD7762] (partner 0.2 µM)
In short: (§1)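 Nuclei were stained with Hoechst during a one-step fixation (final 0.05% Triton X-100, 1% formaldehyde, 1 ug/ml Hoechst) carried out 5 days after dosing, then counted on 4× images. The cells, lung cancer lines in 1536-well plates, had been dosed by pin tool the day after seeding with one drug alone or a fixed anchor-drug dose plus five library-drug doses (not always all listed) in √10 steps. Relative viability is the nuclei count in treated wells divided by that in vehicle wells, and each value is the median of duplicate plates.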

[2] = compound: CC1=C(C(=NN1)C)CC2=C(C3=C(S2)N(C(=O)N(C3=O)C)CC(C)C)C(=O)N4C[C@@H](CO4)O + CC(=O)c1c(C)c2cnc(Nc3ccc(N4CCNCC4)cn3)nc2n(C2CCCC2)c1=O [Palbociclib] (partner 0.5 µM)
In short: as §1

IDH-C35 + Decitabine = compound: Cc1ccccc1C(C(=O)NC1CCCCC1)N(C(=O)Cn1ccnc1C)c1cccc(F)c1 [IDH-C35] + Nc1ncn([C@H]2C[C@H](O)[C@@H](CO)O2)c(=O)n1 [Decitabine] (partner 2 µM)
In short: as §1

IDH-C35 + Crizotinib = compound: Cc1ccccc1C(C(=O)NC1CCCCC1)N(C(=O)Cn1ccnc1C)c1cccc(F)c1 [IDH-C35] + C[C@@H](Oc1cc(-c2cnn(C3CCNCC3)c2)cnc1N)c1c(Cl)ccc(F)c1Cl [Crizotinib] (partner 1 µM)
In short: as §1

Cell Line	relative viability ([1]; first compound 0.0025 µM)	relative viability ([1]; first compound 0.007906 µM)	relative viability ([1]; first compound 0.025 µM)	relative viability ([1]; first compound 0.07906 µM)	relative viability ([1]; first compound 0.25 µM)	relative viability ([2]; first compound 0.0025 µM)	relative viability ([2]; first compound 0.007906 µM)	relative viability ([2]; first compound 0.025 µM)	relative viability ([2]; first compound 0.07906 µM)	relative viability ([2]; first compound 0.25 µM)	relative viability (IDH-C35 + Decitabine; first compound 0.08 µM)	relative viability (IDH-C35 + Decitabine; first compound 0.253 µM)	relative viability (IDH-C35 + Decitabine; first compound 0.8 µM)	relative viability (IDH-C35 + Decitabine; first compound 2.53 µM)	relative viability (IDH-C35 + Decitabine; first compound 8 µM)	relative viability (IDH-C35 + Crizotinib; first compound 0.08 µM)	relative viability (IDH-C35 + Crizotinib; first compound 0.253 µM)	relative viability (IDH-C35 + Crizotinib; first compound 0.8 µM)	relative viability (IDH-C35 + Crizotinib; first compound 2.53 µM)	relative viability (IDH-C35 + Crizotinib; first compound 8 µM)
NCI-H2347	0.739	0.697	0.734	0.718	0.667	0.426	0.4	0.431	0.36	0.445	0.647	0.651	0.661	0.599	0.654	0.71	0.695	0.713	0.762	0.619
NCI-H1993	0.893	0.656	0.596	0.674	0.696	0.689	0.731	0.709	0.597	0.75	0.586	0.567	0.7	0.693	0.566	0.888	0.874	0.833	0.743	0.903
NCI-H322M	0.655	0.57	0.71	0.573	0.662	0.557	0.467	0.536	0.441	0.505	0.686	0.701	0.695	0.718	0.78	0.863	0.961	0.91	0.931	1.02
NCI-H838	0.908	0.859	0.884	0.835	0.896	0.206	0.193	0.182	0.275	0.182	0.446	0.414	0.468	0.464	0.486	0.834	0.787	0.812	0.77	0.799
HARA	0.281	0.288	0.324	0.297	0.218	0.308	0.199	0.28	0.247	0.264	0.434	0.438	0.625	0.504	0.505	1.02	0.986	0.997	1.09	1.05
NCI-H2087	1.43	1.37	1.15	1.13	1.3	0.244	0.264	0.193	0.16	0.223	0.284	0.25	0.274	0.302	0.254	0.91	0.898	0.843	0.902	0.841
NCI-H1437	1.21	1.07	1.09	1.11	1.14	0.357	0.348	0.284	0.296	0.303	0.56	0.56	0.576	0.572	0.525	0.979	0.913	0.907	0.874	0.796
NCI-H1792	0.607	0.727	0.512	0.564	0.578	0.777	0.747	0.665	0.604	0.627	0.45	0.48	0.476	0.539	0.533	0.972	0.949	0.94	1.01	0.971
ChaGo-K-1	0.938	0.919	0.855	0.823	0.889	0.956	0.937	0.943	0.878	0.931	0.507	0.531	0.535	0.533	0.531	1.16	1.05	1.09	0.923	1.09
NCI-H650	1.03	0.961	0.893	0.936	0.913	0.345	0.353	0.274	0.334	0.347	0.304	0.339	0.371		0.313	0.671	0.677	0.9		0.689
LK-2	0.304	0.252	0.298	0.129	0.134	0.642	0.715	0.646	0.626	0.457	0.327	0.368	0.205	0.395	0.289	0.223	0.23	0.215	0.209	0.233
201T	0.67	0.673	0.573	0.586	0.677	0.358	0.355	0.369	0.327	0.367	0.871	0.839	0.86	0.839	0.836	1.03	1.02	0.982	0.999	0.997
HCC-44	1	0.984	0.98	1.06	1.07	0.989	0.992	0.961	0.894	1.05	0.997	0.914	0.91	0.939	0.901	0.848	0.794	0.719	0.801	0.733
H3255	0.929	0.927	0.755	0.85	0.936	0.32	0.326	0.269	0.296	0.315	0.61	0.607	0.606	0.63	0.596	0.898	0.9	0.897	0.773	0.848
NCI-H647	0.515	0.418	0.366	0.653	0.45	0.376	0.409	0.441	0.518	0.287	0.45	0.344	0.401	0.42	0.366	0.876	1.02	1.05	1.07	0.98
NCI-H23	0.23	0.208	0.298	0.271	0.31	0.508	0.639	0.559	0.518	0.665	0.332	0.35	0.336	0.332	0.312	0.488	0.654	0.488	0.507	0.432

Cell Line	relative viability ([1]; first compound 0.0025 µM)	relative viability ([1]; first compound 0.007906 µM)	relative viability ([1]; first compound 0.025 µM)	relative viability ([1]; first compound 0.07906 µM)	relative viability ([1]; first compound 0.25 µM)	relative viability ([2]; first compound 0.0025 µM)	relative viability ([2]; first compound 0.007906 µM)	relative viability ([2]; first compound 0.025 µM)	relative viability ([2]; first compound 0.07906 µM)	relative viability ([2]; first compound 0.25 µM)	relative viability (IDH-C35 + Decitabine; first compound 0.08 µM)	relative viability (IDH-C35 + Decitabine; first compound 0.253 µM)	relative viability (IDH-C35 + Decitabine; first compound 0.8 µM)	relative viability (IDH-C35 + Decitabine; first compound 2.53 µM)	relative viability (IDH-C35 + Decitabine; first compound 8 µM)	relative viability (IDH-C35 + Crizotinib; first compound 0.08 µM)	relative viability (IDH-C35 + Crizotinib; first compound 0.253 µM)	relative viability (IDH-C35 + Crizotinib; first compound 0.8 µM)	relative viability (IDH-C35 + Crizotinib; first compound 2.53 µM)	relative viability (IDH-C35 + Crizotinib; first compound 8 µM)
NCI-H1944	0.531	0.524	0.466	0.478	0.51	0.328	0.335	0.337	0.314	0.363	0.43	0.416	0.43	0.416	0.437	1.12	1.18	0.979	1.04	1.22
NCI-H460	0.726	0.65	0.562	0.551	0.596	0.181	0.199	0.204	0.226	0.217	0.541	0.46	0.482	0.467	0.466	1	0.989	0.782	0.814	0.955
EKVX	0.803	0.721	0.761	0.517	0.725	0.475	0.44	0.417	0.368	0.39	0.343	0.399	0.4	0.321	0.339	0.953	0.74	0.688	0.935	1.08
NCI-H358	0.571	0.623	0.431	0.643	0.594	0.144	0.132	0.12	0.121	0.14	0.216	0.192	0.234	0.211	0.213	0.67	0.516	0.559	0.505	0.589
EPLC-272H	0.252	0.21	0.225	0.144	0.231	0.322	0.315	0.319	0.324	0.331	0.357	0.392	0.344		0.384	1.09	0.805	0.855		1.03
NCI-H2126	1.06	1.08	0.943	0.867	1.05	0.356	0.335	0.368	0.327	0.369	0.573	0.602	0.592	0.526	0.559	0.996	1.02	1	0.981	0.992
LXF-289	1.06	1.13	1.07	1.2	1.22	0.525	0.605	0.574	0.586	0.613	0.405	0.401	0.38	0.371	0.415	0.794	0.774	0.771	0.798	0.798
NCI-H2405	0.793	0.778	0.573	0.69	0.678	0.529	0.531	0.54	0.473	0.563	0.701	0.751	0.652	0.775	0.668	0.837	0.841	0.852	0.829	0.797
NCI-H1755	0.465	0.434	0.425	0.407	0.471	0.452	0.462	0.412	0.424	0.45	0.685	0.639	0.757	0.708	0.708	0.911	0.915	0.872	0.865	0.827
HCC-78	0.538	0.588	0.555	0.529	0.673	0.534	0.546	0.464	0.469	0.44	0.701	0.579	0.703	0.605	0.707	0.343	0.349	0.342	0.322	0.303
LOU-NH91	0.817	0.817	0.75	0.863	0.742	0.535	0.565	0.508	0.496	0.526	0.808	0.799	0.795	0.767	0.799	0.741	0.754	0.722	0.743	0.751
NCI-H3122	1.03	1.09	1.02	0.973	1.02	0.165	0.241	0.205	0.176	0.209	0.432	0.428	0.386	0.473	0.458	0.292	0.299	0.295	0.252	0.27
HCC-827	0.233	0.199	0.196	0.196	0.2	0.403	0.414	0.339	0.541	0.466	0.309	0.318	0.282	0.317	0.296	0.911	0.956	0.911	0.876	0.957
NCI-H1975	0.709	0.691	0.735	0.723	0.771	0.624	0.706	0.66	0.623	0.699	0.442	0.403	0.379	0.438	0.364	1	0.967	0.93	0.924	0.876
NCI-H1651	0.414	0.478	0.391	0.337	0.416	0.54	0.562	0.493	0.532	0.508	0.528	0.629	0.593	0.615	0.555	0.848	0.874	0.874	0.919	0.925
NCI-H441	1.44	1.23	1.12	1.3	1.16	0.245	0.217	0.255	0.237	0.215	0.279	0.23	0.272	0.244	0.228	0.964	0.673	0.649	0.703	0.749
